Patent publication US11092608B2, “Methods of identifying modulators of CASTOR1-GATOR2 interaction and use of same to modulate mTORC1” (Whitehead Institute for Biomedical Research, priority 2015, dated 2021)
Several values for one entry are separate records, joined by “and”; a condition that tells them apart may be missing. Equal entries are not always repeated.

Key:
CASTOR2 homodimer = target: T1, CASTOR2 homodimer (Homo sapiens, UniProt A6NHX0); experiment: Arginine binding assay (equilibrium binding with [3H]-labeled arginine); details: immunopurified from HEK-293T cells
T1 construct: made in house; host or cells: HEK-293T (transfected, pRK5-based cDNA plasmids; anti-FLAG immunoprecipitates)
T1 sequence (A6NHX0 1-329) 1: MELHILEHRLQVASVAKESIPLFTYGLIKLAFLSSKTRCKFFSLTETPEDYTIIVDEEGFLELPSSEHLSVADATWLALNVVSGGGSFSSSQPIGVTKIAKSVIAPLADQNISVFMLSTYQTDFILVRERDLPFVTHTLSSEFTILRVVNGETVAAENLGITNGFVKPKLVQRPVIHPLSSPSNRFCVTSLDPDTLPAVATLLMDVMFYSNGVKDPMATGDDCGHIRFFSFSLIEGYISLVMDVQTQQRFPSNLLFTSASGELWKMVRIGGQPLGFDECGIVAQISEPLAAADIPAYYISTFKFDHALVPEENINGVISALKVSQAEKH
T1 sequence (A6NHX0 1-329) 2: T1 sequence (A6NHX0 1-329) 1
Protocol: Four million HEK-293T cells were plated in a 15 cm plate four days prior to the experiment. Forty-eight hours after plating, the cells were transfected via the polyethylenimine method (Boussif et al., 1995) with the pRK5-based cDNA expression plasmids indicated in the figures in the following amounts: 15 μg FLAG-Rap2A, 400 ng CASTOR1-FLAG or CASTOR2-FLAG with 1200 ng CASTOR1-HA or 1200 ng CASTOR2-HA, 400 ng CASTOR1 1280A-FLAG with 1200 ng CASTOR1 1280A-HA. The total amount of plasmid DNA in each transfection was normalized to 15 μg with empty pRK5. Forty-eight hours after transfection cells were lysed as previously described (Wolfson et al., 2015). […]
For the binding assays, all immunoprecipitates were washed in pairs once with Triton wash buffer, three times with Triton lysis buffer supplemented with 500 mM NaCl, and three times with cytosolic buffer (0.1% Triton, 40 mM HEPES pH 7.4, 10 mM NaCl, 150 mM KCl, 2.5 mM MgCl2). […] Three 10 μl aliquots of this mix were separately quantified using a TriCarb scintillation counter (PerkinElmer).
For each sample, an immunoprecipitation was performed in parallel. […] Equal volumes of the eluent were resolved by 10% SDS-PAGE and analyzed with Coomassie Blue stain. Kd values were calculated as previously described (Wolfson et al., 2015).

[1] = target: T2, interaction of GATOR2 with CASTOR1-CASTOR2 heterodimer (Homo sapiens, UniProt Q8WTX7); experiment: In vitro CASTOR-GATOR2 dissociation assay; format: biochemical
T2 construct: made in house; host or cells: HEK-293T co-transfected with the CASTOR cDNAs; GATOR2 is the cells' endogenous complex, co-immunoprecipitated on anti-HA beads
T2 sequence (Q8WTX7 1-329): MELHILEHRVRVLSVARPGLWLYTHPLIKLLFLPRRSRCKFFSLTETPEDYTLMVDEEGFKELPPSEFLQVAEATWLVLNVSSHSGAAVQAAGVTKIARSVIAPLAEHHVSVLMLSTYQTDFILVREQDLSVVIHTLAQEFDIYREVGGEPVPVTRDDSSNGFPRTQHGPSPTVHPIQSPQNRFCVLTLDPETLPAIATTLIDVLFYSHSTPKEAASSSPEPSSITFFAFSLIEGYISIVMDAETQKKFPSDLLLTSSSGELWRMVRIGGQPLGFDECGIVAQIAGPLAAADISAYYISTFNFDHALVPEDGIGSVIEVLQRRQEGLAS
T2 sequence (A6NHX0 1-329 partner): T1 sequence (A6NHX0 1-329) 1
Protocol: (§1) HEK-293T cells co-transfected with 40 ng CASTOR1-HA and either 80 ng CASTOR1-FLAG (CASTOR1 homodimer) or 80 ng CASTOR2-FLAG (CASTOR1-CASTOR2 heterodimer) were starved for all amino acids for 50 minutes, lysed and subjected to anti-HA immunoprecipitation as described previously. The CASTOR-GATOR2 complexes immobilized on agarose beads were washed once in Triton wash buffer, three times in Triton wash buffer supplemented with 500 mM NaCl, and then incubated for 20 minutes in 1 mL of ice-cold Triton wash buffer supplemented with 500 mM NaCl and the indicated concentrations of individual amino acids. The amount of GATOR2 that remained bound to CASTOR complexes was assayed by SDS-PAGE and immunoblotting as previously described.

[2] = target: T3, interaction of GATOR2 with CASTOR1 homodimer (Homo sapiens, UniProt Q8WTX7); experiment: In vitro CASTOR-GATOR2 dissociation assay; format: biochemical
T3 construct: made in house; host or cells: HEK-293T co-transfected with the CASTOR cDNAs; GATOR2 is the cells' endogenous complex, co-immunoprecipitated on anti-HA beads
T3 sequence (Q8WTX7 1-329) 1: T2 sequence (Q8WTX7 1-329)
T3 sequence (Q8WTX7 1-329) 2: T2 sequence (Q8WTX7 1-329)
Protocol: as §1

CASTOR1 homodimer = target: T4, CASTOR1 homodimer (Homo sapiens, UniProt Q8WTX7); experiment: Arginine binding assay (equilibrium / competition binding with [3H]-labeled amino acids); details: for binding of radiolabeled amino acid to CASTOR1 homodimer: immunopurified from HEK-293T cells, competed by excess nonradiolabelled arginine
T4 construct: made in house; host or cells: HEK-293T (transfected, pRK5-based cDNA plasmids; anti-FLAG immunoprecipitates)
T4 sequence (Q8WTX7 1-329) 1: T2 sequence (Q8WTX7 1-329)
T4 sequence (Q8WTX7 1-329) 2: T2 sequence (Q8WTX7 1-329)
Protocol: (§2) Four million HEK-293T cells were plated in a 15 cm plate four days prior to the experiment. Forty-eight hours after plating, the cells were transfected via the polyethylenimine method (Boussif et al., 1995) with the pRK5-based cDNA expression plasmids indicated in the figures in the following amounts: 15 μg FLAG-Rap2A, 400 ng CASTOR1-FLAG or CASTOR2-FLAG with 1200 ng CASTOR1-HA or 1200 ng CASTOR2-HA, 400 ng CASTOR1 1280A-FLAG with 1200 ng CASTOR1 1280A-HA. The total amount of plasmid DNA in each transfection was normalized to 15 μg with empty pRK5. Forty-eight hours after transfection cells were lysed as previously described (Wolfson et al., 2015). If multiple samples of the same type were represented in the experiment, the cell lysates were combined, mixed, and evenly distributed amongst the relevant tubes.
(§3) Anti-FLAG immunoprecipitates were prepared as previously described, with the exception that prior to incubation with lysates, the beads were blocked by rotating in 1 μg/μl bovine serum albumin (BSA) for 20 minutes at 4° C. and subsequently washed twice in lysis buffer. Thirty μl of the 50% slurry of beads in lysis buffer was added to each of the clarified cell lysates and incubated for 90 minutes.
(§4) For the binding assays, all immunoprecipitates were washed in pairs once with Triton wash buffer, three times with Triton lysis buffer supplemented with 500 mM NaCl, and three times with cytosolic buffer (0.1% Triton, 40 mM HEPES pH 7.4, 10 mM NaCl, 150 mM KCl, 2.5 mM MgCl2). All the liquid was subsequently aspirated and a 15 μl aliquot of proteins bound to the beads was incubated for one hour on ice in cytosolic buffer with the appropriate amount of [^3H]-labeled amino acids and cold amino acids. At the end of one hour, the beads were spun at 2,500 rpm for 25 seconds, aspirated, and rapidly washed three times with binding wash buffer (0.1% Triton, 40 mM HEPES pH 7.4, 150 mM NaCl). The beads were aspirated dry and resuspended in 85 μl of binding wash buffer. Three 10 μl aliquots of this mix were separately quantified using a TriCarb scintillation counter (PerkinElmer).
(§5) For each sample, an immunoprecipitation was performed in parallel. After washing four times as previously described, the beads were aspirated dry and resuspended in 50 μl FLAG elution buffer (Triton wash buffer supplemented with 300 mM NaCl and 1 mg/ml FLAG peptide), and incubated with rotation for 1 hour at 4° C. The eluent was subsequently resuspended in sample buffer. Equal volumes of the eluent were resolved by 10% SDS-PAGE and analyzed with Coomassie Blue stain. Kd values were calculated as previously described (Wolfson et al., 2015).

[3] = target: T5, CASTOR1-CASTOR2 heterodimer (Homo sapiens, UniProt Q8WTX7); experiment: as above
T5 construct: made in house; host or cells: HEK-293T (transfected, pRK5-based cDNA plasmids; anti-FLAG immunoprecipitates)
T5 sequence (Q8WTX7 1-329): T2 sequence (Q8WTX7 1-329)
T5 sequence (A6NHX0 1-329 partner): T1 sequence (A6NHX0 1-329) 1
Protocol: as §2, §3, §4, §5

[4] = 400 μM arginine added to purified complexes
[5] = competition binding with increasing cold arginine, FLAG immunoprecipitates from HEK-293T cells

Compound | binding of tritiated arginine to CASTOR2 homodimer (CASTOR2 homodimer) | dissociation of GATOR2 from CASTOR1-CASTOR2 heterodimer [1, 4] | EC50 ([1]; purified complexes from amino acid starved HEK-293T cells, CASTOR1-CASTOR2 heterodimer, read-out: arginine concentration for half-maximal disruption of GATOR2 interaction) | dissociation of GATOR2 from CASTOR1 homodimer [2, 4] | EC50 ([2]; purified complexes from amino acid starved HEK-293T cells, CASTOR1 homodimer, read-out: arginine concentration for half-maximal disruption of GATOR2 interaction) | arginine binding to CASTOR1 homodimer purified from E. coli (CASTOR1 homodimer; bacterially produced protein) | Kd (CASTOR1 homodimer; [5]) | binding of radiolabeled amino acid to CASTOR1 homodimer (CASTOR1 homodimer) | arginine binding to CASTOR1-CASTOR2 heterodimer purified from E. coli ([3]; bacterially produced protein) | Kd [3, 5] | amount of arginine bound by CASTOR1-CASTOR2 heterodimer relative to CASTOR1 homodimer ([3]; immunopurified from HEK-293T cells)
N=C(N)NCCC[C@H](N)C(=O)O [arginine] | not | sufficient to dissociate GATOR2 | 20 to 40 µM | sufficient to dissociate GATOR2 | 20 to 40 µM | bound arginine to a comparable degree as the complexes prepared from human cells | ~30 µM and 34.8 µM | bound | bound arginine to a comparable degree as the complexes prepared from human cells | ~30 µM and 24.2 µM | roughly half as much arginine as the CASTOR1 homodimer
CC(C)C[C@H](N)C(=O)O [leucine] |  |  |  |  |  |  |  | neither radiolabeled leucine nor lysine bound |  |  | 
NCCCC[C@H](N)C(=O)O [lysine] |  |  |  |  |  |  |  | neither radiolabeled leucine nor lysine bound |  |  | 
